Measurements reported in the NIST ThermoML archive (doi:10.1016/j.fluid.2004.11.020).

Assay: Solid-liquid equilibrium temperature
Settings: closed cylinder with variable piston

CCCCCCCCCCCCC [tridecane]
Crystal 1
Settings	Solid-liquid equilibrium temperature [K]
100 kPa	268.21
133010 kPa	293.15
197120 kPa	303.15
265400 kPa	313.15
337830 kPa	323.15
414420 kPa	333.15
495170 kPa	343.15

CCCCCCCCCCCCCCCCCC [octadecane]
Crystal
Settings	Solid-liquid equilibrium temperature [K]
8860 kPa	303.15
49600 kPa	313.15
94900 kPa	323.15
144780 kPa	333.15
199220 kPa	343.15
258230 kPa	353.15

CCCCCCCCCCCCCCCC [hexadecane]
Crystal
Settings	Solid-liquid equilibrium temperature [K]
9210 kPa	293.15
50650 kPa	303.15
95560 kPa	313.15
143920 kPa	323.15
195740 kPa	333.15
251030 kPa	343.15
